Data published in patent US8017612B2, “Piperazine compound and use thereof as a HCV polymerase inhibitor” (priority 2006, dated 2011).

Key:
[1] = molecular target: T1, HCV polymerase (NS5B) type 1b (Hepatitis C virus genotype 1b, UniProt P26663); assay: Assay of enzyme (HCV polymerase) inhibitory activity, type 1b enzyme; assay type: biochemical, HCV BK strain (type 1b)
T1 construct: a region encoding NS5B (J Virol 1991 March, 65(3), 1105-13, 544 amino acids after deletion of 47 amino acids on the C-terminal); 6xHis (C); made in house; host or cells: Escherichia coli
Summary of the method: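 His-tagged, C-terminally truncated NS5B (BK strain, 1b; 0.5 μg/ml) incubated with compound 60 min at 25 °C on 3′UTR-derived substrate RNA (5 μg/ml), 50 μM ATP/GTP/CTP, 2 μM UTP plus [3H]UTP, pH 7.5. Acid-precipitated RNA counted; IC50 from radioactivity with and without compound.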

[2] = molecular target: T2, HCV polymerase (NS5B) type 1a (Hepatitis C virus genotype 1a, UniProt P26664); assay: Assay of enzyme (HCV polymerase) inhibitory activity, type 1a enzyme; assay type: biochemical, HCV type 1a (cloned from the blood of patients)
T2 construct: made in house; host or cells: Escherichia coli (by the 'similar method' of the 1b enzyme)
Summary of the method: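 His-tagged NS5B, C-terminal 47 residues deleted, type 1a at 1.5 μg/ml, with 5 μg/ml HCV 3′UTR substrate RNA, 50 μM ATP/GTP/CTP, 2 μM UTP plus [3H]UTP, pH 7.5 Tris, 5 mM MgCl2; 60 min at 25° C. TCA-precipitated RNA counted by scintillation; IC50 from radioactivity with vs. without compound.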

[3] = HCV polymerase inhibitory activity IC50, 1b, type 1b enzyme
[4] = HCV polymerase inhibitory activity IC50, 1a, type 1a enzyme
[5] = HCV polymerase inhibitory activity (IC50), 1b, type 1b enzyme 0.5 μg/ml, 25° C., 60 min
[6] = HCV polymerase inhibitory activity (IC50), 1a, type 1a enzyme 1.5 μg/ml, 25° C., 60 min

| Compound | IC50 [1, 3] [µM] | IC50 [2, 4] [µM] | IC50 [1, 5] [µM] | IC50 [2, 6] [µM] |
| --- | --- | --- | --- | --- |
| CC(C)(C)c1ncc2sc(N3CCN(S(=O)(=O)c4ccc(C(F)(F)F)cc4)[C@@H](C(=O)NCc4ccc(OC(F)(F)F)cc4)C3)nc2n1 [Example 1025, (R)-4-(5-tert-butyl-thiazolo[4,5-d]pyrimidin-2-yl)-1-(4-trifluoromethyl-benzenesulfonyl)-piperazine-2-carboxylic acid 4-trifluoromethoxy-benzylamide] | < 0.1 | < 0.1 | – | – |
| CCCc1ccc(CNC(=O)[C@H]2CN(c3nc4cn[nH]c(=O)c4s3)CCN2S(=O)(=O)c2ccc(C(F)(F)F)cc2)cc1 [Example 820, (R)-4-(7-oxo-6,7-dihydro-thiazolo[4,5-d]pyridazin-2-yl)-1-(4-trifluoromethyl-benzenesulfonyl)-piperazine-2-carboxylic acid 4-propyl-benzylamide] | < 0.1 | < 0.1 | – | – |
| CC(C)(C)c1ccc(CNC(=O)[C@H]2CN(c3ccc(C(=O)O)nc3)CCN2S(=O)(=O)c2ccc(OC(F)(F)F)cc2)cc1 [Example 620, 5-[(R)-3-(4-tert-butyl-benzylcarbamoyl)-4-(4-trifluoromethoxy-benzenesulfonyl)-piperazin-1-yl]-pyridine-2-carboxylic acid] | – | – | < 0.1 | < 0.1 |
| CC(C)c1ccc(CNC(=O)[C@H]2CN(C(=O)CCCCC(=O)O)CCN2S(=O)(=O)c2ccc(C(F)(F)F)cc2)cc1 [Example 213, 6-[(R)-3-(4-isopropyl-benzylcarbamoyl)-4-(4-trifluoromethyl-benzenesulfonyl)-piperazin-1-yl]-6-oxo-hexanoic acid] | – | – | 0.1 to 1 | 0.1 to 1 |
| O=C(O)c1cncc2ncc(N3CCN(S(=O)(=O)c4ccc(OC(F)(F)F)cc4)[C@@H](C(=O)NCc4ccc(OC(F)(F)F)cc4)C3)nc12 [Example 806, 2-[(R)-4-(4-trifluoromethoxy-benzenesulfonyl)-3-(4-trifluoromethoxy-benzylcarbamoyl)-piperazin-1-yl]-pyrido[3,4-b]pyrazine-8-carboxylic acid] | < 0.1 | < 0.1 | – | – |
| CC(=O)N1CCN(S(=O)(=O)c2ccc(C(C)C)cc2)C(C(=O)NCc2ccc(C(F)(F)F)nc2)C1 (stereo not shown) [Example 151, 4-acetyl-1-(4-isopropyl-benzenesulfonyl)-piperazine-2-carboxylic acid (6-trifluoromethyl-pyridin-3-ylmethyl)-amide] | – | – | > 1 | > 1 |
| CCCc1ccc(CNC(=O)[C@H]2CN(c3cnc4cnccc4n3)CCN2S(=O)(=O)c2ccc(-c3cccc(O)c3)cc2)cc1 [Example 778, (R)-1-(3′-hydroxy-biphenyl-4-sulfonyl)-4-pyrido[3,4-b]pyrazin-2-yl-piperazine-2-carboxylic acid 4-propyl-benzylamide] | < 0.1 | < 0.1 | – | – |
| CCN(C)c1ccc(CNC(=O)[C@H]2CN(c3cnc4cncnc4n3)CCN2S(=O)(=O)c2ccc(OC(F)(F)F)cc2)cc1 [Example 619, (R)-4-pteridin-7-yl-1-(4-trifluoromethoxy-benzenesulfonyl)-piperazine-2-carboxylic acid 4-(ethyl-methyl-amino)-benzylamide] | – | – | < 0.1 | < 0.1 |
| CC(=O)N1CCN(S(=O)(=O)c2ccc(C(C)C)cc2)C(C(=O)NCc2ccc(OC(C)C)cc2)C1 (stereo not shown) [Example 127, 4-acetyl-1-(4-isopropyl-benzenesulfonyl)-piperazine-2-carboxylic acid 4-isopropoxy-benzylamide] | – | – | > 1 | > 1 |
| COc1ccc(CNC(=O)[C@H]2CN(C(C)=O)CCN2S(=O)(=O)c2ccc(OC(F)(F)F)cc2)cc1 [Example 608, (R)-4-acetyl-1-(4-trifluoromethoxy-benzenesulfonyl)-piperazine-2-carboxylic acid 4-methoxy-benzylamide] | – | – | 0.1 to 1 | 0.1 to 1 |
| CCCc1ccc(CNC(=O)[C@H]2CN(c3cnc(C(=O)O)cn3)CCN2S(=O)(=O)c2ccc(OC(F)(F)F)cc2)c(Cl)c1 [Example 474, (R)-3-(2-chloro-4-propyl-benzylcarbamoyl)-4-(4-trifluoromethoxy-benzenesulfonyl)-3,4,5,6-tetrahydro-2H-[1,2′]bipyrazinyl-5′-carboxylic acid] | – | – | < 0.1 | < 0.1 |
| O=C(NCc1ccc(OC(F)F)cc1)[C@H]1CN(c2nc3ncncc3s2)CCN1S(=O)(=O)c1ccc(C(F)(F)F)cc1 [Example 969, (R)-4-thiazolo[4,5-d]pyrimidin-2-yl-1-(4-trifluoromethyl-benzenesulfonyl)-piperazine-2-carboxylic acid 4-difluoromethoxy-benzylamide] | < 0.1 | < 0.1 | – | – |
| CC(C)NC(=O)c1cncc2ncc(N3CCN(S(=O)(=O)c4ccc(OC(F)(F)F)cc4)[C@@H](C(=O)NCc4ccc(OC(F)(F)F)cc4)C3)nc12 [Example 871, 2-[(R)-4-(4-trifluoromethoxy-benzenesulfonyl)-3-(4-trifluoromethoxy-benzylcarbamoyl)-piperazin-1-yl]-pyrido[3,4-b]pyrazine-8-carboxylic acid isopropylamide] | < 0.1 | < 0.1 | – | – |
| CCC(F)(F)c1ccc(CNC(=O)[C@H]2CN(c3nc4nc(C)nc(Cl)c4s3)CCN2S(=O)(=O)c2ccc(C(F)(F)F)cc2)cc1 [Example 934, (R)-4-(7-chloro-5-methyl-thiazolo[4,5-d]pyrimidin-2-yl)-1-(4-trifluoromethyl-benzenesulfonyl)-piperazine-2-carboxylic acid 4-(1,1-difluoro-propyl)-benzylamide] | < 0.1 | < 0.1 | – | – |
| CC(C)c1ccc(CNC(=O)[C@H]2CN(C(=O)Nc3cccc(Cl)c3)CCN2S(=O)(=O)c2ccc(C(F)(F)F)cc2)cc1 [Example 270, (R)-4-(4-trifluoromethyl-benzenesulfonyl)-piperazine-1,3-dicarboxylic acid 1-[(3-chloro-phenyl)-amide] 3-(4-isopropyl-benzylamide)] | – | – | 0.1 to 1 | > 1 |
| CCC(F)(F)c1ccc(CNC(=O)[C@H]2CN(c3cnc4cc(C(=O)O)ccc4n3)CCN2S(=O)(=O)c2ccc(OC(F)(F)F)cc2)cc1 [Example 712, 2-[(R)-3-[4-(1,1-difluoro-propyl)-benzylcarbamoyl]-4-(4-trifluoromethoxy-benzenesulfonyl)-piperazin-1-yl]-quinoxaline-6-carboxylic acid] | < 0.1 | < 0.1 | – | – |
| CC(=O)N1CCN(S(=O)(=O)c2ccc(OC(F)(F)F)cc2)[C@@H](C(=O)NCCCc2ccc(O)cc2)C1 [Example 717, (R)-4-acetyl-1-(4-trifluoromethoxy-benzenesulfonyl)-piperazine-2-carboxylic acid [3-(4-hydroxy-phenyl)-propyl]-amide] | > 1 | > 1 | – | – |
| CCCc1ccc(CNC(=O)[C@H]2CN(c3nc4c(C(=O)OCC)n[nH]c(=O)c4s3)CCN2S(=O)(=O)c2ccc(CC)cc2)cc1 [Example 862, 2-[(R)-4-(4-ethyl-benzenesulfonyl)-3-(4-propyl-benzylcarbamoyl)-piperazin-1-yl]-7-oxo-6,7-dihydro-thiazolo[4,5-d]pyridazine-4-carboxylic acid ethyl ester] | < 0.1 | < 0.1 | – | – |
| O=C(NCc1ccc(OC(F)F)cc1)[C@H]1CN(c2nn3c(C(F)(F)F)cc(=O)nc3s2)CCN1S(=O)(=O)c1ccc(OC(F)(F)F)cc1 [Example 1066, (R)-4-(7-oxo-5-trifluoromethyl-7H-[1,3,4]thiadiazolo[3,2-a]pyrimidin-2-yl)-1-(4-trifluoromethoxy-benzenesulfonyl)-piperazine-2-carboxylic acid 4-difluoromethoxy-benzylamide] | < 0.1 | < 0.1 | – | – |
| O=C(NCc1ccc(OC(F)(F)F)cc1)[C@H]1CN(c2nc3nc(Cl)ncc3s2)CCN1S(=O)(=O)c1ccc(OC(F)F)cc1 [Example 918, (R)-4-(5-chloro-thiazolo[4,5-d]pyrimidin-2-yl)-1-(4-difluoromethoxy-benzenesulfonyl)-piperazine-2-carboxylic acid 4-trifluoromethoxy-benzylamide] | < 0.1 | < 0.1 | – | – |
| CC(=O)N1CCN(S(=O)(=O)c2ccc(C(C)C)cc2)C(C(=O)NCc2cccc(F)c2)C1 (stereo not shown) [Example 78, 4-acetyl-1-(4-isopropyl-benzenesulfonyl)-piperazine-2-carboxylic acid 3-fluoro-benzylamide] | – | – | > 1 | > 1 |
| CCNC(=O)c1cnc(N2CCN(S(=O)(=O)c3ccc(OC(F)(F)F)cc3)[C@@H](C(=O)NCc3ccc(OC(F)(F)F)cc3)C2)cn1 [Example 852, (R)-4-(4-trifluoromethoxy-benzenesulfonyl)-3,4,5,6-tetrahydro-2H-[1,2′]bipyrazinyl-3,5′-dicarboxylic acid 5′-ethylamide 3-(4-trifluoromethoxy-benzylamide)] | < 0.1 | < 0.1 | – | – |
| CCc1ccc(S(=O)(=O)N2CCN(c3cnc4cncc(C(=O)O)c4n3)C[C@@H]2C(=O)NCc2ccc(C(C)(C)CC)cc2)cc1 [Example 854, 2-[(R)-3-[4-(1,1-dimethyl-propyl)-benzylcarbamoyl]-4-(4-ethyl-benzenesulfonyl)-piperazin-1-yl]-pyrido[3,4-b]pyrazine-8-carboxylic acid] | < 0.1 | < 0.1 | – | – |
